In US20200278355A1, “CONJUGATED PROTEINS AND USES THEREOF” (THE SCRIPPS RESEARCH INSTITUTE, priority 2017, published 2020):

How the values were obtained:
NR0B1 = molecular target: T1, NR0B1 (Homo sapiens, UniProt P51843); assay: isoTOP-ABPP of compound-treated H460 cells: NR0B1; format: cell-based; settings: for receptor occupancy at 40 µM: NCI-H460, 40 μM for 3 h, read-out: target occupancy of C274 of NR0B1
T1 construct: H460 cells or H460 cells expressing luciferase in a 10 cm plate were incubated with indicated compounds; endogenous in cells; host or cells: H460 (NSCLC, KEAP1-mutant)
T1 sequence (P51843 1-470): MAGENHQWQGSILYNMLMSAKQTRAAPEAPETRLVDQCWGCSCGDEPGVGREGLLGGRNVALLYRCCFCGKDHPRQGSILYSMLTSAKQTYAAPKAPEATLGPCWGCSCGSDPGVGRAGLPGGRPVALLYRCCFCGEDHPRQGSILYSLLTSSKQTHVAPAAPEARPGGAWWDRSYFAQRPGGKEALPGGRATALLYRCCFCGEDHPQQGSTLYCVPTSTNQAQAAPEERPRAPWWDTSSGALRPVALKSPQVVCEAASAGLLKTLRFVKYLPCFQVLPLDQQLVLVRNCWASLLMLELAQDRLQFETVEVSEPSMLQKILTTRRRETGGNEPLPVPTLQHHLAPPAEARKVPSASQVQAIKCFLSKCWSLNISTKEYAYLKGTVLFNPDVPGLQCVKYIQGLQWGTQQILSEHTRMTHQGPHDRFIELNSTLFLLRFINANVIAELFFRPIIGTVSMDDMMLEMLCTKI
Experimental: (§1) For analysis of NR0B1 ligands or control compound reactivity, H460 cells or H460 cells expressing luciferase in a 10 cm plate were incubated with indicated compounds in serum/dye-free RPMI for 3 hours at 37° C. Cells were washed once ice-cold PBS and lysed in 1% Triton X-100 dissolved in PBS with protease inhibitors (Sigma) by sonication. Samples were clarified by centrifugation for 10 min at 16,000×g. Lysate was adjusted to 1.5 mg ml^−1 in 500 μL.
(§2) Samples were labeled for 1 h at ambient temperature with 100 μM iodoacetamide alkyne (1, IA-alkyne, 5 μL of 10 mM stock in DMSO). Samples were conjugated by copper-catalyzed azide-alkyne cycloaddition (CuAAC) to isotopically labeled, TEV-cleavable tags (TEV-tags). Heavy CuAAC reaction mixtures was added to the DMSO-treated or shGFP control samples and light CuAAC reaction mixture was added to compound-treated or shNRF2 samples. The CuAAC reaction mixture consisted of TEV tags (light or heavy, 10 μL of 5 mM stocks in DMSO, final concentration=100 μM), 1 mM tris(2-carboxyethyl)phosphine hydrochloride (TCEP; fresh 50× stock in water, final concentration=1 mM), ligand (17× stock in DMSO:t-butanol 1:4, final concentration=100 μM) and 1 mM CuSO4 (50× stock in water, final concentration=1 mM). The samples were allowed to react for 1 h at which point the samples were centrifuged (16,000×g, 5 min, 4° C.). The resulting pellets were sonicated in ice-cold methanol (500 μL) and the resuspended light- and heavy-labeled samples were then combined pairwise and centrifuged (16,000×g, 5 min, 4° C.). The pellets were solubilized in PBS containing 1.2% SDS (1 mL) with sonication and heating (5 min, 95° C.) and any insoluble material was removed by an additional centrifugation step at ambient temperature (14,000×g, 1 min).
For each sample, 100 μL of streptavidin-agarose beads slurry (Fisher) was washed in 10 mL PBS and then resuspended in 6 mL PBS (final concentration 0.2% SDS in PBS). The SDS-solubilized proteins were added to the suspension of streptavidin-agarose beads and the bead mixture was rotated for 3 h at ambient temperature. After incubation, the beads were pelleted by centrifugation (1,400×g, 3 min) and were washed (2×10 mL PBS and 2×10 mL water).
The beads were transferred to eppendorftubes with 1 mL PBS, centrifuged (1,400×g, 3 min), and resuspended in PBS containing 6 M urea (500 μL). To this was added 10 mM DTT (25 μL of a 200 mM stock in water) and the beads were incubated at 65° C. for 15 mins. 20 mM iodoacetamide (25 μL of a 400 mM stock in water) was then added and allowed to react at 37° C. for 30 mins with shaking. The bead mixture was diluted with 900 μL PBS, pelleted by centrifugation (1,400×g, 3 min), and resuspended in PBS containing 2 M urea (200 μL). To this was added 1 mM CaCl2 (2 μL of a 200 mM stock in water) and trypsin (2 μg, Promega, sequencing grade) and the digestion was allowed to proceed overnight at 37° C. with shaking. The beads were separated from the digest with Micro Bio-Spin columns (Bio-Rad) by centrifugation (1,000×g, 1 min), washed (2×1 mL PBS and 2×1 mL water) and then transferred to fresh eppendorf tubes with 1 mL water. The washed beads were washed once further in 140 μL TEV buffer (50 mM Tris, pH 8, 0.5 mM EDTA, 1 mM DTT) and then resuspended in 140 μL TEV buffer. 5 μL TEV protease (80 μM) was added and the reactions were rotated overnight at 29° C. The TEV digest was separated from the beads with Micro Bio-Spin columns by centrifugation (1,400×g, 3 min) and the beads were washed once with water (100 μL). The samples were then acidified to a final concentration of 5% (v/v) formic acid and stored at −80° C. prior to analysis.
Samples processed for multidimensional liquid chromatography tandem mass spectrometry (MudPIT) were pressure loaded onto a 250 μm (inner diameter) fused silica capillary columns packed with C18 resin (Aqua 5 μm, Phenomenex). […]

[1] = tested on: cysteines in NSCLC cell proteomes (H460 cells); assay: isoTOP-ABPP of compound-treated H460 cells, proteome-wide; format: cell-based, human; settings: KEAP1-mutant NSCLCs
Experimental: as §1
as §2, with “The resulting pellets were sonicated in ice-cold methanol (500 μL) and the resuspended light- and heavy-labeled samples were then combined pairwise and centrifuged (16,000×g, 5 min, 4° C.). The pellets were solubilized in PBS containing 1.2% SDS (1 mL) with sonication and heating (5 min, 95° C.) and any insoluble material was removed by an additional centrifugation step at ambient temperature (14,000×g, 1 min).” left out

O=C(c1ccc(N2CCOCC2)cc1)N1CCC(CN(C(=O)CCl)c2cncnc2)CC1 [BPK-9, 2-chloro-N-((1-(4-morpholinobenzoyl)piperidin-4-yl)methyl)-N-(pyrimidin-5-yl)acetamide]
engagement of C274 of NR0B1 (NR0B1; NSCLC cells, 40 μM, 3 h): did not engage C274

O=C(c1ccc(N2CCOCC2)cc1)N1CCCC(N(Cc2ccccc2)C(=O)CCl)CC1 (stereo not shown) [BPK-29, N-benzyl-2-chloro-N-(1-(4-morpholinobenzoyl)azepan-4-yl)acetamide]
overall proteomic selectivity [1]: good overall proteomic selectivity
cysteines in NR0B1 engaged among several quantified cysteines (NR0B1; 40 μM, 3 h): the only cysteine in NR0B1 engaged
receptor occupancy at 40 µM (NR0B1; NSCLC cells): ~70%
BPK-29-competed isoTOP-ABPP analysis (NR0B1; NR0B1 C274, 40 μM): Yes (Competed defined as showing R value ≥ 3.0 at 40 μM of test compound)
relative potency of C274 engagement (NR0B1; NSCLC cells): superior potency compared to BPK-26
engagement of C274 (NR0B1; NSCLC cells, 5 μM, 3 h): > 50%

O=C(CCl)N(Cc1cccc(Cl)c1F)c1ccc(Cl)nc1 [BPK-26, 2-chloro-N-(3-chloro-2-fluorobenzyl)-N-(6-chloropyridin-3-yl)acetamide]
overall proteomic selectivity [1]: good overall proteomic selectivity
cysteines in NR0B1 engaged among several quantified cysteines (NR0B1; 40 μM, 3 h): the only cysteine in NR0B1 engaged
receptor occupancy at 40 µM (NR0B1; NSCLC cells): ~70%
